In article PMC6214715 (Journal of veterinary pharmacology and therapeutics, 2018):

Assays:
[1] = system: cat liver microsomes; format: in vitro ADME; conditions: pooled cat liver microsomes (n = 16); (+)-M1 at 10 μM, (+)-M2 at 0.5 μM
[2] = molecular target: T1, CYP2C41 (Canis lupus familiaris, UniProt O62671); format: in vitro ADME, canine; conditions: recombinant CYP2C41; (+)-M1 10 μM, (+)-M2 0.5 μM
T1 sequence (O62671 1-489): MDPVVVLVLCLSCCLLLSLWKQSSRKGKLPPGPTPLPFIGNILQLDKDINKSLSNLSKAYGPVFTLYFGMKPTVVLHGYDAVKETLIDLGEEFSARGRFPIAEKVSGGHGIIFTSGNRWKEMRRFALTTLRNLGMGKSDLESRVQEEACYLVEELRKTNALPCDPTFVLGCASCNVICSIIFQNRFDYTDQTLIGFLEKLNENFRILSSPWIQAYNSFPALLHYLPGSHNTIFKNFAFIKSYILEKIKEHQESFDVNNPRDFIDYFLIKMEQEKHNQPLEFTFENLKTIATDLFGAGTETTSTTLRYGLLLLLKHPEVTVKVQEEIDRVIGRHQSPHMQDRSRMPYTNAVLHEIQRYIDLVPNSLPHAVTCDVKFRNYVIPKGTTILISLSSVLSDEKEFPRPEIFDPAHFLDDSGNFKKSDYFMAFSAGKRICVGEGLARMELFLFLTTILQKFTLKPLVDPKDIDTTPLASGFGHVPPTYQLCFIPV

[3] = molecular target: T2, CYP1A1 (Canis lupus familiaris, UniProt P56590); format: in vitro ADME, canine; conditions: recombinant CYP1A1; (+)-M1 10 μM, (+)-M2 0.5 μM
T2 sequence (P56590 1-524): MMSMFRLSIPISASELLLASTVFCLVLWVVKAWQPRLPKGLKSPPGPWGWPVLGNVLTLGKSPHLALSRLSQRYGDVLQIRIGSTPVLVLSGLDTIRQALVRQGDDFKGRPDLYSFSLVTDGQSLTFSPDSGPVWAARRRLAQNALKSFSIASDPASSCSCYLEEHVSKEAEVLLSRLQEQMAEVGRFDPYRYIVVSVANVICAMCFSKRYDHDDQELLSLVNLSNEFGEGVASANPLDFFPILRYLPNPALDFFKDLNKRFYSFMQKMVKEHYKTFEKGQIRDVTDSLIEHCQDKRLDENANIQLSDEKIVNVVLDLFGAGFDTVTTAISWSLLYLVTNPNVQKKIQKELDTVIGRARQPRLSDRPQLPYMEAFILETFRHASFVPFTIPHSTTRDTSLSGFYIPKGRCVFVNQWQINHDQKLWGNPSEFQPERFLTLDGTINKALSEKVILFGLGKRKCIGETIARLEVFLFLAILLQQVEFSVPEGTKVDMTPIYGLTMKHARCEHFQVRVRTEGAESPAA

## CN(C)CC1CCCCC1(O)c1cccc(O)c1.Cl (single isomer, unassigned; (+)) [(+)-M1, (+)-O-desmethyltramadol hydrochloride]
[1]
  (+)-M5 formation rate (in words): low activities
[2]
  formation rate of (+)-M5 (in words): somewhat lower activities
[3]
  formation rate of (+)-M5 (in words): only very low activities
